# Assays:
# [1] = system: RAC1-dependent membrane ruffle formation in NIH 3T3 cells; experiment: EGF-induced membrane ruffle formation; format: cell-based; settings: EGF 10 ng/mL, inhibitors added 1 h prior; read-out: IC50, inhibition of ruffles formation
# Description: Figure 2 Identification of a new RAC1 inhibitor (A) Effect of A41 and NSC23766 on ruffle formation (white arrows) induced by EGF (10 ng/mL) in NIH 3T3 cells in serum-free culture medium (CTL). Inhibitors were added at indicated concentration 1 h prior to EGF stimulation. To assess cytoskeleton organization, cells were incubated with Alexa Fluor 488 phalloidin to visualize F-actin. Results shown are representative of 3 independent experiments. Corresponding concentration-response curves have been established by counting the percentages of cells with ruffles (scale bars: 10 μm). (B) Immunoblot analysis and associated quantification of RAC-GTP level and total RAC expression in NIH 3T3 cells stimulated by EGF (10 ng/mL, 5 min) and pre-incubated or not (−) with NSC23766, A41, or A415 at 10^−5 M for 1 h (∗∗∗p < 0.001 vs. controls without EGF stimulation, ^###p < 0.001 vs. controls with EGF stimulation) (N > 3). […] (D) Representative in vitro nucleotide exchange catalyzed by the DH-PH of TIAM (10 nM) measured by the binding of fluorescent mant-GTP (1 μM) to RAC1 (0.5 μM, preloaded with GDP) in the presence of indicated concentrations of A41 (out of N = 6). […] (E) Kobs and Kmax were determined in each condition (N = 6). […]
# After indicated treatments, cells were fixed with 4% paraformaldehyde and permeabilized in PBS 0.5% Triton X-100. […] Cancer cells were detected with firefly luciferase antibody (ab21176, Abcam) (dilution 1/500) overnight at room temperature, followed by secondary Alexa 488-labeled anti-rabbit antibody (dilution 1/1000). […] After staining, cells were mounted in Prolong gold antifade reagent with DAPI and images were captured by a fluorescence microscope. […]
# Supp. […] For each molecule, druglikeness has been assessed according to Lipinski’s rules: molecular weight (MW)<500; high lipophilicity (LogP<5); less than 5 hydrogen bond donors (HBD); less than 10 hydrogen bond acceptors (HBA). The log P was calculated by using OSIRIS – Data Warrior software. […] IC50 was determined experimentally from the inhibition
# [2] = Ames fluctuation test (7th group); format: cell-based
# Excerpt: Data S3. Ames-fluctuation assay-A41.
# Test Concentration Count Positive Significance Fisher Exact Test
# [3] = target: Cdc7/cyclinB1(h) (Homo sapiens, UniProt O00311); experiment: Kinase Profiler; format: biochemical
# Sequence of Cdc7/cyclinB1(h) (O00311 whole entry): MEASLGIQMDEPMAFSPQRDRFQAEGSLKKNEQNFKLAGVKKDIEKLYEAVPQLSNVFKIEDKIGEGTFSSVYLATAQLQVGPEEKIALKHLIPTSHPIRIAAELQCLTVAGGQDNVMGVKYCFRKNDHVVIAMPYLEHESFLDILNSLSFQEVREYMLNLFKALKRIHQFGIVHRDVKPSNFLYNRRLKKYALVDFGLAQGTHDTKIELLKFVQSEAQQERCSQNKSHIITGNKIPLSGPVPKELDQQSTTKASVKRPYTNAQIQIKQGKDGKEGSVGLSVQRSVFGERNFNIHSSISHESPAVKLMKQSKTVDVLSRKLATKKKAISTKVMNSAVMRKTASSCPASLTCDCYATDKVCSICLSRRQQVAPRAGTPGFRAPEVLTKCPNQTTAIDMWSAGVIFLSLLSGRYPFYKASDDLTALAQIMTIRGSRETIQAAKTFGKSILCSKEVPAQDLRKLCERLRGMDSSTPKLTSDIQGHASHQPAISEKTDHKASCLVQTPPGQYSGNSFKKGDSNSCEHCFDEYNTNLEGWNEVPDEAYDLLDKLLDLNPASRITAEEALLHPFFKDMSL
# Description: (§1) The kinase profiler was performed by the company Eurofins (Discovery, Panlab and Cerep).
# [4] = target: EGFR(h) (Homo sapiens, UniProt P00533); experiment: Kinase Profiler; format: biochemical
# Description: as §1
# [5] = target: FGFR2(N549H)(h) (Homo sapiens, UniProt P21802, N549H); experiment: Kinase Profiler; format: biochemical
# Sequence of FGFR2(N549H)(h) (P21802 22-821 N549H): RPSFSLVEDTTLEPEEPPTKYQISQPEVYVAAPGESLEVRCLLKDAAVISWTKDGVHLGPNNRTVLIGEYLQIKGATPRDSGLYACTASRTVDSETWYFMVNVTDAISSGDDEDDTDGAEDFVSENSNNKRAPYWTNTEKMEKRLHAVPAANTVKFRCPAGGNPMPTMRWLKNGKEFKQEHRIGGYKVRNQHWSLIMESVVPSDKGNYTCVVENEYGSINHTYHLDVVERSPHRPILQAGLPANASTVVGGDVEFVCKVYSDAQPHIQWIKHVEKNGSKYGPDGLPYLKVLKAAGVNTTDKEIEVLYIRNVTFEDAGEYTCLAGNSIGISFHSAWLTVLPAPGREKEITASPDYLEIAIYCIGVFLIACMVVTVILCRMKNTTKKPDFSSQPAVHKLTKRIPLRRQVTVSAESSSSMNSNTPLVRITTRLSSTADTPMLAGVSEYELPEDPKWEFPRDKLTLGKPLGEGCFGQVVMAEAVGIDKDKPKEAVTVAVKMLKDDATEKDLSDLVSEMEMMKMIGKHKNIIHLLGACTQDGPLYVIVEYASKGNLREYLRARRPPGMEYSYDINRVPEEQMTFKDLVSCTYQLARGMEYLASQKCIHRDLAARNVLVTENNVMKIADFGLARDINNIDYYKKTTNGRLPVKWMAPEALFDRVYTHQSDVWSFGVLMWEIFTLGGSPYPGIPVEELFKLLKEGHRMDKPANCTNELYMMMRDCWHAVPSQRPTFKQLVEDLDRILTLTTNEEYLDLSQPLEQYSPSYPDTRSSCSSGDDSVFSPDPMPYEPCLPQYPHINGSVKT
# Description: as §1
# [6] = target: Lck(h) (Homo sapiens, UniProt P06239); experiment: Kinase Profiler; format: biochemical
# Description: as §1
# [7] = target: LIMK2(h) (Homo sapiens, UniProt P53671); experiment: Kinase Profiler; format: biochemical
# Sequence of LIMK2(h) (P53671 whole entry): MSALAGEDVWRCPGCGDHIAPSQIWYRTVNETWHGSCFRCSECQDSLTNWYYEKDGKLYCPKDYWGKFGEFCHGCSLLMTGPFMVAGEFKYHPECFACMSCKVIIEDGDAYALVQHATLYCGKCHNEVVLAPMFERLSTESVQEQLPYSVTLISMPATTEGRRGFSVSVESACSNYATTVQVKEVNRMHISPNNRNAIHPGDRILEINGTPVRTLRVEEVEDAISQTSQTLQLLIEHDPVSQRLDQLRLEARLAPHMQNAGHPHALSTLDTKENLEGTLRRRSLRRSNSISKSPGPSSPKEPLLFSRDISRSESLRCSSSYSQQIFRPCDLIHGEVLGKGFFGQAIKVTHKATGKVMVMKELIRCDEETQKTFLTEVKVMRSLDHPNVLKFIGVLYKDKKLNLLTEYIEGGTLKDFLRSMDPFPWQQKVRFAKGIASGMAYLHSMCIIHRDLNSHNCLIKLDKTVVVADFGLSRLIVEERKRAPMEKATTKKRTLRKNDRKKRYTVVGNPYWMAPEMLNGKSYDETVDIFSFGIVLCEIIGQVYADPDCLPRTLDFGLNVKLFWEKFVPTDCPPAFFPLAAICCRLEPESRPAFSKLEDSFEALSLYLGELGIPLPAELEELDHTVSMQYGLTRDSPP
# Description: as §1
# [8] = target: Lyn(h) (Homo sapiens, UniProt P07948); experiment: Kinase Profiler; format: biochemical
# Sequence of Lyn(h) (P07948 whole entry): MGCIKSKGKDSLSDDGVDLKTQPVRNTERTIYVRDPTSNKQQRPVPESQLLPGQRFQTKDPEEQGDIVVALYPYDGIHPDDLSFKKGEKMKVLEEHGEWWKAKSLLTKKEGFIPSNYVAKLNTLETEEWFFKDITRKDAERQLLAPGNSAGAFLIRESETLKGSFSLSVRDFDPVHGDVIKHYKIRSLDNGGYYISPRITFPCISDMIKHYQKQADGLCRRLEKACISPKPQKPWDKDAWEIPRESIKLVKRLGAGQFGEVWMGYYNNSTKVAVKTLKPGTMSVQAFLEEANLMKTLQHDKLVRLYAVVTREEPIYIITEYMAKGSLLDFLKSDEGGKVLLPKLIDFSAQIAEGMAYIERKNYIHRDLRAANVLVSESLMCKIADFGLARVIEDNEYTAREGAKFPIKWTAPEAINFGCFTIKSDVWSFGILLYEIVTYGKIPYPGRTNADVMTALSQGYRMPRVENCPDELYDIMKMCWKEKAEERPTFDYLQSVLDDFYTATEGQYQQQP
# Description: as §1
# [9] = target: MELK(h) (Homo sapiens, UniProt Q14680); experiment: Kinase Profiler; format: biochemical
# Description: as §1
# [10] = target: Mer(h) (Homo sapiens, UniProt Q12866); experiment: Kinase Profiler; format: biochemical
# Description: as §1
# [11] = target: MKK3(h) (Homo sapiens, UniProt P46734); experiment: Kinase Profiler; format: biochemical
# Sequence of MKK3(h) (P46734 whole entry): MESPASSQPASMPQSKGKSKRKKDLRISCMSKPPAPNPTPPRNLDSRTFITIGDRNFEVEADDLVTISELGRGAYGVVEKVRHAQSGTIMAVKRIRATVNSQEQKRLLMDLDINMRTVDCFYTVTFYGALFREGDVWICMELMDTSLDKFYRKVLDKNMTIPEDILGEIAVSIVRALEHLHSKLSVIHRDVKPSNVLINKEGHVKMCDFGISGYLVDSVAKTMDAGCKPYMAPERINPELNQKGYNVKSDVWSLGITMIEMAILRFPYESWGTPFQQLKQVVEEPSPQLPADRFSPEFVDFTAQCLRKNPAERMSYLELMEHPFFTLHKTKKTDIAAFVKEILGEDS
# Description: as §1
# [12] = target: MSK2(h) (Homo sapiens, UniProt O75676); experiment: Kinase Profiler; format: biochemical
# Sequence of MSK2(h) (O75676 whole entry): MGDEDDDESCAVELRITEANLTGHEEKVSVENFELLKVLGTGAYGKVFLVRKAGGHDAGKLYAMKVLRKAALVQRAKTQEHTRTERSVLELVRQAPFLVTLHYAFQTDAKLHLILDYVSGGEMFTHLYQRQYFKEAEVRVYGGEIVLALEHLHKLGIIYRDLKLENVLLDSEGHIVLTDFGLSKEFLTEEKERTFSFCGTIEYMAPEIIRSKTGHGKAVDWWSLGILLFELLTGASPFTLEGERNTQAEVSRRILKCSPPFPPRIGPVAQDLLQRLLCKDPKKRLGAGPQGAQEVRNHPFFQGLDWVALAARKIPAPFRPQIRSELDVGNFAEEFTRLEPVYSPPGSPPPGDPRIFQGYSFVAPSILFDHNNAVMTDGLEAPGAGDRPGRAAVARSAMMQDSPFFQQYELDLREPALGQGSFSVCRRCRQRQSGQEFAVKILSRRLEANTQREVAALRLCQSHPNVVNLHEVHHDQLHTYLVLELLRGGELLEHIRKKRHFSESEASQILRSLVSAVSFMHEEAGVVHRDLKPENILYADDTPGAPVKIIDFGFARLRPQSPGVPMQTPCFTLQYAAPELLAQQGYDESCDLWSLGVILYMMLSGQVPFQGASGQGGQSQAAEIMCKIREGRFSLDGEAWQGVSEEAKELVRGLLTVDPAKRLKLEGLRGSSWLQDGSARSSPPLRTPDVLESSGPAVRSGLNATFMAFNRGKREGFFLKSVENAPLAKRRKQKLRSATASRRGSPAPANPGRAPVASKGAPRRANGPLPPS
# Description: (§2) Blood cell counts, kinase profiler, safety screen, bacterial cytotoxicity, Ames, micronucleus assays were performed by the company Eurofins (France). The kinase profiler was performed by the company Eurofins (Discovery, Panlab and Cerep).
# [13] = target: NEK6(h) (Homo sapiens, UniProt Q9HC98); experiment: Kinase Profiler; format: biochemical
# Sequence of NEK6(h) (Q9HC98 whole entry): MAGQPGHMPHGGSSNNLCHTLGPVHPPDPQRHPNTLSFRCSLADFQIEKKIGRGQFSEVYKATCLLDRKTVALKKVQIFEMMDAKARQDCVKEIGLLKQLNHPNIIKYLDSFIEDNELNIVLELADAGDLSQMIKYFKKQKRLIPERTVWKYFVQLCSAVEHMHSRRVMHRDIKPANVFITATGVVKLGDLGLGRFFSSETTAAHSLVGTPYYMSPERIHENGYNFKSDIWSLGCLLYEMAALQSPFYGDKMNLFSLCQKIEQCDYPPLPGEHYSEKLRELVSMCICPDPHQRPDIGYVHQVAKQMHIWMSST
# Description: as §1
# [14] = target: SBK1(h) (Homo sapiens, UniProt Q52WX2); experiment: Kinase Profiler; format: biochemical
# Sequence of SBK1(h) (Q52WX2 whole entry): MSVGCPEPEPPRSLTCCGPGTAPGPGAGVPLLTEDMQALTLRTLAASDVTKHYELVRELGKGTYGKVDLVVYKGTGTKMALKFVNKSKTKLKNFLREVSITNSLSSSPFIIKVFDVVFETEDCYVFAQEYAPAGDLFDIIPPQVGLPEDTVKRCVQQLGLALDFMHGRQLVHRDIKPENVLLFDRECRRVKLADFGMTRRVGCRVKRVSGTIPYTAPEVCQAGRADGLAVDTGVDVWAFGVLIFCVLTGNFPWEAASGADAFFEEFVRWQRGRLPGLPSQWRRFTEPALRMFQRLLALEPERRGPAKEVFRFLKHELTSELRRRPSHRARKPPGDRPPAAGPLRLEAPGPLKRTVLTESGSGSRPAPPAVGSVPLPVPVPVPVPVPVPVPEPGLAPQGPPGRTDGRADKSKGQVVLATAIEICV
# Description: as §1
# [15] = target: STK39(h) (Homo sapiens, UniProt Q9UEW8); experiment: Kinase Profiler; format: biochemical
# Description: as §1
# [16] = target: TAO3(h) (Homo sapiens, UniProt Q9H2K8); experiment: Kinase Profiler; format: biochemical
# Description: as §2
# [17] = target: Yes(h) (Homo sapiens, UniProt P07947); experiment: Kinase Profiler; format: biochemical
# Sequence of Yes(h) (P07947 whole entry): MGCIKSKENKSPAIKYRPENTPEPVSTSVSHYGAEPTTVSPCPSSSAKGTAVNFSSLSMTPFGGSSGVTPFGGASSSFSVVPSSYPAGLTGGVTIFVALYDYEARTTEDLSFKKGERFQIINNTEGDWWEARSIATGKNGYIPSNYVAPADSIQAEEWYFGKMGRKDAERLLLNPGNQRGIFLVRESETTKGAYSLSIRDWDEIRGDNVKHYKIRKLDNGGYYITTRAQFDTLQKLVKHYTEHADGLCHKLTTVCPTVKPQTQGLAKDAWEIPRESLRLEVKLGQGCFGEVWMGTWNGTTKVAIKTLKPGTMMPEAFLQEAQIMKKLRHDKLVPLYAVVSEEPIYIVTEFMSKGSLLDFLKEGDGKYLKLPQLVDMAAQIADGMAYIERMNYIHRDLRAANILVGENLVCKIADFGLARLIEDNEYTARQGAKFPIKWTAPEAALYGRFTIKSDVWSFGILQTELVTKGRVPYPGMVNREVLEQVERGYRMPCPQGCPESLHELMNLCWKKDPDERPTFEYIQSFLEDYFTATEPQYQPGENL
# Description: as §1
smiles,measurement,setting,value
COc1ccc(OC)c(NS(=O)(=O)c2ccc(NC(=O)CCSc3ccc(C)cc3)cc2)c1 [Compound A41],IC50,[1],2.5 nM
same,Count Positive (# of wells),[2]; 1.0E-04 M,1
same,Count Positive (# of wells),[2]; 1.0E-05 M,0
same,Count Positive (# of wells),[2]; 5.0E-05 M,0
same,Count Positive (# of wells),[2]; 5.0E-06 M,1
same,Activity(%),[3],92%
same,Activity(%),[4],115%
same,Activity(%),[5],105%
same,Activity(%),[6],74%
same,Activity(%),[7],115%
same,Activity(%),[8],109%
same,Activity(%),[9],107%
same,Activity(%),[10],90%
same,Activity(%),[11],117%
same,Activity(%),[12],105%
same,Activity(%),[13],109%
same,Activity(%),[14],101%
same,Activity(%),[15],91%
same,Activity(%),[16],97%
same,Activity(%),[17],110%

# From paper PMC12281424, “A Rac-specific competitive inhibitor of guanine nucleotide binding reduces metastasis in triple-negative breast cancer” (Cell Reports Medicine, 2025)
